Measurements taken from paper PMC4584933, “Establishing the pig as a large animal model for vaccine development against human cancer” (Frontiers in Genetics, 2015).

How the values were obtained:
[1] = test system: SLA-1*07:02; test: Peptide-MHC class I complex stability, scintillation proximity assay (SPA); design: species or system pig; conditions: biotinylated recombinant SLA heavy chain, 125I-β2m, excess unlabeled β2m, read every 40 min, number only if t1/2 ≥ 0.5 h, '-' = not stably binding
Procedure: (§1) The stability of the selected 198 peptides in complex with relevant SLA class I molecules and β2m was determined using a scintillation proximity assay (SPA), as previously described (Harndahl et al., [2011]). Briefly, biotinylated recombinant MHC class I heavy chains were attached to a streptavidin-coated scintillation microplate together with iodinated (^125I) β2m and candidate peptide resulting in a scintillation signal, which was consecutively measured every 40 min by a scintillation plate counter. The duration of this signal is directly correlated to the stability of the peptide-MHC class I-β2m complex under dissociating conditions and in the presence of excess unlabeled β2m (Harndahl et al., [2011]). Peptides with a half-life ≥ 0.5 h were selected as stable binders.

[2] = test system: SLA-2*04:01; test: as above; design: species or system pig; conditions: biotinylated recombinant SLA heavy chain, 125I-β2m, excess unlabeled β2m, read every 40 min, number only if t1/2 ≥ 0.5 h, '-' = not stably binding
Procedure: as §1

[3] = test system: PBMCs; test: In vitro peptide stimulation of porcine PBMCs, IFN-γ release assay (ELISA); format: cell-based, pig; design: key to T cell response: “x” indicates that a response was found to this given peptide at least once; conditions: PBMCs of immunized pigs, 2 × 10^5/well, 5 μg/ml peptide, 67.5–70.0 h, IFN-γ ELISA; response = 2-fold increase vs day -2 and at least 25 pg/ml IFN-γ, found at least once; SLA restriction not included
[4] = test system: SLA-2*05:02; test: Peptide-MHC class I complex stability, scintillation proximity assay (SPA); design: species or system pig; conditions: biotinylated recombinant SLA heavy chain, 125I-β2m, excess unlabeled β2m, read every 40 min, number only if t1/2 ≥ 0.5 h, '-' = not stably binding
Procedure: as §1

[5] = test system: SLA-3*04:01; test: as above; design: species or system pig; conditions: biotinylated recombinant SLA heavy chain, 125I-β2m, excess unlabeled β2m, read every 40 min, number only if t1/2 ≥ 0.5 h, '-' = not stably binding
Procedure: as §1

Sequence	Binder (t1/2 ≥ 0.5 h): half-life of peptide-SLA-1*07:02 complex [1]	T cell response [3]	other results
PLLSEGLLY [IDO95, porcine IDO-derived 9-11mer peptide]	42 min		
QAMVSLRNY [IDO100, porcine IDO-derived 9-11mer peptide]	- (t1/2 (hours) is listed for each of the stably binding peptides (t1/2 ≥ 0.5 h))		
EVYVPTVFENY [RhoC25, porcine RhoC-derived 9-11mer peptide]	264 min		Binder (t1/2 ≥ 0.5 h): half-life of peptide-SLA-2*04:01 complex [2]: 36 min
DPSGPMTYKNM [IDO12, porcine IDO-derived 9-11mer peptide]	30 min	x	
VPSGSAAGF [IDO128, porcine IDO-derived 9-11mer peptide]	- (t1/2 (hours) is listed for each of the stably binding peptides (t1/2 ≥ 0.5 h))		Binder (t1/2 ≥ 0.5 h): half-life of peptide-SLA-2*04:01 complex [2]: - (t1/2 (hours) is listed for each of the stably binding peptides (t1/2 ≥ 0.5 h))
NPLLSEGLLY [IDO88, porcine IDO-derived 9-11mer peptide]	1440 min	x	
HPYDAWIAI [IDO42, porcine IDO-derived 9-11mer peptide]	- (t1/2 (hours) is listed for each of the stably binding peptides (t1/2 ≥ 0.5 h))		
LVLGYITMAY [IDO73, porcine IDO-derived 9-11mer peptide]	240 min		Binder (t1/2 ≥ 0.5 h): half-life of peptide-SLA-2*04:01 complex [2]: 48 min
HLVLGYITMAY [IDO41, porcine IDO-derived 9-11mer peptide]	30 min		
NSWKIFEEY [IDO89, porcine IDO-derived 9-11mer peptide]	- (t1/2 (hours) is listed for each of the stably binding peptides (t1/2 ≥ 0.5 h))		Binder (t1/2 ≥ 0.5 h): half-life of peptide-SLA-2*04:01 complex [2]: 42 min
MPPAHRNFLH [IDO77, porcine IDO-derived 9-11mer peptide]	- (t1/2 (hours) is listed for each of the stably binding peptides (t1/2 ≥ 0.5 h))		
SLRNYHLQI [IDO118, porcine IDO-derived 9-11mer peptide]			Binder (t1/2 ≥ 0.5 h): half-life of peptide-SLA-2*05:02 complex [4]: - (t1/2 (hours) is listed for each of the stably binding peptides (t1/2 ≥ 0.5 h)); Binder (t1/2 ≥ 0.5 h): half-life of peptide-SLA-3*04:01 complex [5]: - (t1/2 (hours) is listed for each of the stably binding peptides (t1/2 ≥ 0.5 h))
FLQEMRTYM [IDO24, porcine IDO-derived 9-11mer peptide]	- (t1/2 (hours) is listed for each of the stably binding peptides (t1/2 ≥ 0.5 h))		
PPAHRNFLH [IDO97, porcine IDO-derived 9-11mer peptide]	66 min	x	
PPILVYADCV [IDO99, porcine IDO-derived 9-11mer peptide]	210 min	x	
VSLRNYHLQI [IDO130, porcine IDO-derived 9-11mer peptide]			Binder (t1/2 ≥ 0.5 h): half-life of peptide-SLA-2*05:02 complex [4]: - (t1/2 (hours) is listed for each of the stably binding peptides (t1/2 ≥ 0.5 h)); Binder (t1/2 ≥ 0.5 h): half-life of peptide-SLA-3*04:01 complex [5]: - (t1/2 (hours) is listed for each of the stably binding peptides (t1/2 ≥ 0.5 h))
CPNVPIILV [RhoC5, porcine RhoC-derived 9-11mer peptide]	42 min	x	
FPGGDCGKGFF [IDO30, porcine IDO-derived 9-11mer peptide]	- (t1/2 (hours) is listed for each of the stably binding peptides (t1/2 ≥ 0.5 h))		
LGLPPILVY [IDO65, porcine IDO-derived 9-11mer peptide]	- (t1/2 (hours) is listed for each of the stably binding peptides (t1/2 ≥ 0.5 h))		Binder (t1/2 ≥ 0.5 h): half-life of peptide-SLA-2*04:01 complex [2]: - (t1/2 (hours) is listed for each of the stably binding peptides (t1/2 ≥ 0.5 h))
YPDTDVILM [RhoC58, porcine RhoC-derived 9-11mer peptide]	72 min	x	
LPRNIAIPY [IDO70, porcine IDO-derived 9-11mer peptide]	60 min	x	
